From patent US4820821A, “Novel pyridazinone-imines and their physiologically tolerated addition salts with acids, their preparation and therapeutic agents containing these compounds” (BASF Aktiengesellschaft, priority 1981, dated 1989)
Structures can show the parent of a compound that is named as a salt. Where two headings read alike, the source gives them in different places.

Key:
[1] = test system: reserpine-induced hypothermia; assay: Antidepressive action: reserpine antagonism, inhibition of reserpine-induced hypothermia of the mouse; assay type: in vivo, male Swiss mice; settings: for ED50: Mus musculus, dose based on the base, read-out: ED 50% (dose which inhibits the reserpine-induced hypothermia of the mouse by 50%); for R.A. (relative activity), reserpine antagonism: amezinium = 1.00, oral
Procedure: Antidepressants effect dose-dependent inhibition of this hypotherma. The test substances are administered orally 60 minutes before the administration of reserpine.
The dose which effects 50% inhibition of the reserpine-induced hypothermia is determined, as the ED 50%, from the linear regression between log dose (mg/kg) and relative reduction in hypothermia (Δ%).

[2] = test system: blood pressure; assay: Effect on the blood pressure: hypertensive action, pithed rat; assay type: in vivo, male Sprague-Dawley rats; settings: for ED20: Rattus norvegicus, dose based on the base, read-out: ED 20% hypertensive action (dose which increases the blood pressure of the pithed rat by 20%); for R.A. (relative activity), hypertensive action: amezinium = 1.00
Procedure: The measurement of the blood pressure in the carotid artery was carried out by means of Statham transducers. The substance was administered in the jugular vein (as an aqueous solution, 1 ml/kg) or intraperitoneally (as a tragacanth suspension, 2 ml/kg). The ED 20% is determined as the dose which increases the blood pressure by 20%.

[3] = test system: reserpine-induced hypothermia / blood pressure; assay: Quotient ED 50% antidepressive action / ED 20% hypertensive action; assay type: in vivo, mouse / rat; settings: for Q Increase: Table 2, route of hypertensive test not given; for factor by which the quotient of antidepressive action and hypertensive action is smaller than in the case of amezinium: compounds of Table 1;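 as to Q Increase: larger quotient means more selective hypertensive action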
From the text: This is evident from the fact that the quotient defined above differs wtih respect to the comparative compounds. […] This arises, inter alia, from the fact that the hypertensive ED 20 constitutes the denominator of the quotient. It is possible that the unforeseeable selective direction of action is attributable to the special substitution,in accordance with the invention, at the 4-imino group.

[4] = Table 1, oral administration 60 min before reserpine
[5] = iv, Table 1, i.v. administration
[6] = ip, Table 1, i.p. administration

| Structure (SMILES) | ED50 [1, 4] | R.A. (relative activity), reserpine antagonism ([1]; Table 1) | ED20 [2, 5] | R.A. (relative activity), hypertensive action ([2]; Table 1, i.v. administration) | Q (quotient ED 50% antidepressive action/ED 20% hypertensive action) ([3]; hypertensive test i.v.) | ED20 [2, 6] | R.A. (relative activity), hypertensive action ([2]; Table 1, i.p. administration) | Q (quotient ED 50% antidepressive action/ED 20% hypertensive action) ([3]; hypertensive test i.p.) | further results |
| --- | --- | --- | --- | --- | --- | --- | --- | --- | --- |
| O=C(N=c1ccn(-c2ccccc2)nc1)Oc1ccccc1 [Example 30, 1,4-dihydro-4-(phenoxycarbonyl)-imino-1-phenylpyridazine hydrochloride] | – | – | – | – | – | – | – | – | ED50 ([1]; Table 2, oral administration): 4.1 mg/kg; R.A. (relative activity), reserpine antagonism ([1]; Table 2): 0.18; ED20 ([2]; Table 2, route not given): 0.034 mg/kg; R.A. (relative activity), hypertensive action ([2]; Table 2): 1.47; Q Increase [3]: 120.59; factor by which the hypertensive dose (ED 20%) is smaller than the antidepressive effective dose (ED 50%) ([3]; compounds of Table 2): 120 |
| CNC(=O)N=c1ccn(-c2ccccc2)nc1 [Example 31, 1,4-dihydro-4-(methylcarbamyl)-imino-1-phenylpyridazine] | 0.28 mg/kg | 2.62 | 1.47 mg/kg | 0.03 | 0.19 | – | – | – | factor by which the quotient of antidepressive action and hypertensive action is smaller than in the case of amezinium [3]: 77 |
| O=C(N=c1ccn(-c2ccccc2)nc1)OCc1ccccc1 [Example 34] | 0.71 mg/kg | 1.03 | 0.1 mg/kg | 0.50 | 7.10 | – | – | – | – |
| C=CCOC(=O)N=c1ccn(-c2ccccc2)nc1 [Example 35] | 0.25 mg/kg | 2.93 | 0.1 mg/kg | 0.50 | 2.50 | – | – | – | – |
| CCSC(=O)N=c1ccn(-c2ccccc2)nc1 [Example 36] | 2 mg/kg | 0.37 | 0.316 mg/kg | 0.16 | 6.33 | – | – | – | – |
| CC(C)NC(=O)N=c1ccn(-c2ccccc2)nc1 [Example 37] | 0.7 mg/kg | 1.05 | 1 mg/kg | 0.05 | 0.70 | – | – | – | – |
| COc1cc(=NC(C)=O)cnn1-c1ccccc1 [Example 48, 4-acetylimino-1,4-dihydro-6-methoxy-1-phenylpyridazine perchlorate] | 1.1 mg/kg | 0.67 | – | – | – | 6.81 mg/kg | 0.05 | 0.16 | – |
| CCOc1cc(=NC(C)=O)cnn1-c1ccccc1 [Example 49] | 1.71 mg/kg | 0.43 | – | – | – | 4.64 mg/kg | 0.08 | 0.37 | – |
| CCC(=O)N=c1cnn(-c2ccccc2)c(OC)c1 [Example 50] | 0.18 mg/kg | 4.07 | – | – | – | 3.16 mg/kg | 0.12 | 0.06 | – |
| CCCC(=O)N=c1cnn(-c2ccccc2)c(OC)c1 [Example 52] | 1.4 mg/kg | 0.52 | – | – | – | 3.16 mg/kg | 0.12 | 0.44 | – |
| COc1cc(=NC(=O)Oc2ccccc2)cnn1-c1ccccc1 [Example 58, 1,4-dihydro-6-methoxy-4-(phenoxycarbonyl)-imino-1-phenylpyridazine] | – | – | – | – | – | – | – | – | ED50 ([1]; Table 2, oral administration): 5.62 mg/kg; R.A. (relative activity), reserpine antagonism ([1]; Table 2): 0.13; ED20 ([2]; Table 2, route not given): 0.1 mg/kg; R.A. (relative activity), hypertensive action ([2]; Table 2): 0.50; Q Increase [3]: 56.20 |
| COc1cc(=NC(=O)c2ccccc2)cnn1-c1ccccc1 [Example 60] | 0.93 mg/kg | 0.79 | – | – | – | 2.15 mg/kg | 0.17 | 0.43 | – |
| COc1cc(OC)cc(C(=O)N=c2cnn(-c3ccccc3)c(OC)c2)c1 [Example 62] | 0.66 mg/kg | 1.11 | 0.56 mg/kg | 0.09 | 1.18 | – | – | – | – |
| COc1cc(=NC(=O)c2ccccc2Cl)cnn1-c1ccccc1 [Example 64] | 1.27 mg/kg | 0.58 | – | – | – | > 10 mg/kg | < 0.04 | < 0.13 | – |
| CCOc1cc(=NC(=O)c2ccccc2Cl)cnn1-c1ccccc1 [Example 65] | – | – | – | – | – | – | – | – | ED50 ([1]; Table 2, oral administration): > 31.6 mg/kg; R.A. (relative activity), reserpine antagonism ([1]; Table 2): < 0.02; ED20 ([2]; Table 2, route not given): 0.53 mg/kg; R.A. (relative activity), hypertensive action ([2]; Table 2): 0.09; Q Increase [3]: > 59.62 |
| COc1cc(=NC(=O)c2ccc(Cl)cc2)cnn1-c1ccccc1 [Example 66] | 1.8 mg/kg | 0.41 | – | – | – | > 10 mg/kg | < 0.04 | < 0.18 | – |
| COc1cc(=NC(=O)c2ccc(Cl)cc2Cl)cnn1-c1ccccc1 [Example 68] | 0.95 mg/kg | 0.77 | – | – | – | > 21.5 mg/kg | < 0.02 | < 0.04 | – |
| CCOC(=O)N=c1cnn(-c2ccccc2)c(OC)c1 [Example 69] | 4.86 mg/kg | 0.15 | 2.15 mg/kg | 0.02 | 2.26 | – | – | – | – |
| CCCCOC(=O)N=c1cnn(-c2ccccc2)c(OC)c1 [Example 71] | 0.76 mg/kg | 0.96 | 0.464 mg/kg | 0.11 | 1.64 | – | – | – | – |
| C=CCOC(=O)N=c1cnn(-c2ccccc2)c(OC)c1 [Example 72] | 1.47 mg/kg | 0.50 | 0.464 mg/kg | 0.11 | 3.17 | – | – | – | – |
| CCSC(=O)N=c1cnn(-c2ccccc2)c(OC)c1 [Example 73] | 1.23 mg/kg | 0.60 | – | – | – | > 10 mg/kg | < 0.04 | < 0.12 | – |
| COc1cc(=NC(=O)NCc2ccccc2)cnn1-c1ccccc1 [Example 74] | 8.45 mg/kg | 0.09 | 4.64 mg/kg | 0.01 | 1.82 | – | – | – | – |
| COc1cc(=NC(=O)c2cccc(C(F)(F)F)c2)cnn1-c1ccccc1 [Example 77] | 3.4 mg/kg | 0.22 | – | – | – | 3.16 mg/kg | 0.12 | 1.08 | – |
| COc1cc(=NC(=O)c2ccc(C)cc2)cnn1-c1ccccc1 [Example 78] | 0.73 mg/kg | 1.00 | – | – | – | 10 mg/kg | 0.04 | 0.07 | – |
| COc1cc(=NC(=O)c2ccc(F)cc2)cnn1-c1ccccc1 [Example 79] | 1.14 mg/kg | 0.64 | – | – | – | 10 mg/kg | 0.04 | 0.11 | – |
| COc1cc(=NC(=O)c2ccc(Cl)c(Cl)c2)cnn1-c1ccccc1 [Example 80] | 1.5 mg/kg | 0.49 | – | – | – | > 10 mg/kg | < 0.04 | < 0.15 | – |
| CCNC(=O)N=c1ccn(-c2ccccc2)nc1 [Example 84, 1,4-dihydro-4-(ethylcarbamyl)-imino-1-phenylpyridazine] | 0.37 mg/kg | 1.98 | 0.464 mg/kg | 0.11 | 0.80 | – | – | – | – |
| CCCNC(=O)N=c1ccn(-c2ccccc2)nc1 [Example 85, 1,4-dihydro-1-phenyl-4-[(propylcarbamyl)-imino]-pyridazine] | 0.28 mg/kg | 2.62 | 1 mg/kg | 0.05 | 0.28 | – | – | – | factor by which the quotient of antidepressive action and hypertensive action is smaller than in the case of amezinium [3]: 52 |
| CNC(=S)N=c1ccn(-c2ccccc2)nc1 [Example 86, 1,4-dihydro-4-(methylthiocarbamyl)-imino-1-phenylpyridazine] | 2.1 mg/kg | 0.35 | > 1 mg/kg | < 0.05 | < 2.1 | – | – | – | – |
